Data published in US8895753B2, “S1P receptor modulating agent” (Meiji Seika Pharma Co., Ltd., priority 2011, dated 2014).

Legend:
[1] = system: enterobacterium; assay: Stability against enterobacterium (feces / cecum homogenates); assay type: in vitro ADME; details: cynomolgus monkey feces and rat cecum homogenates, 3 and 30 μM, 37° C., 24 hours; all conditions
Protocol: A culture medium was added to fresh feces of a cynomolgus monkey and rat cecum to prepare homogenates. To a homogenate was added the compound of the Example 2, or 1-{4-[5-(4-isopropoxyphenyl)-1,2,4-oxadiazol-3-yl]benzyl}azetidine-3-carboxylic acid (the compound of the Example 29 of Non-Patent Document 5) adjusted at a concentration of 3 and 30 μM, and the mixture was anaerobically cultured at 37° C. for 24 hours. After the cultivation, the concentration of the residual compound in the culture medium was measured on LC-MS.

[2] = system: electrocardiogram; assay: Evaluation of electrocardiogram in a rat (under anesthesia); assay type: in vivo
Protocol: Under anesthesia, femoral artery was cannulated in a 7-11-week-old male SD rat (Charles River Laboratories Japan Inc.) that had been reared for more than one week, connected to a polygraph (NIHON KODEN) via a pressure transducer. Without consciousness, a vehicle (dimethylsulfoxide) or a test compound was intravenously administered. After the administration, blood pressure, the heart rate, and electrocardiogram were monitored for about 10 minutes.

[3] = molecular target: T1, Human S1P1 receptor (Homo sapiens, UniProt P21453); assay: Agonist activity at an S1P1 receptor (reporter assay, EDG1-bla/U2OS cells); assay type: cell-based; set-up: host or cells: U2OS (EDG1-bla/U2OS); details: S1P maximum response = 100%
Protocol: Human S1P1 receptor gene recombinant EDG1-bla/U2OS cells (Life Technologies Japan Ltd.) were plated in a 96-well half-sized clear bottom black plate at a density of 10000 cells/32 μL/well, and then the plate was incubated at 37° C. in a 5% CO2 incubator for 48 hours. A culture medium containing each test compound prepared as a 5× concentrate was added at 8 μL/well, and the plate was incubated at 37° C. in a 5% CO2 incubator for 5 hours. The substrate (LiveBLAzer™-FRET B/G substrate (CCF4-AM), Life Technologies Japan Ltd.) prepared as a 6× concentrate was added at 8 μL into each well, and the plate was incubated at room temperature for 2 hours in the dark. The fluorescence intensity of each well was detected using a bottom-reading fluorescence microplate reader (EnVision: ParkinElmer) at one excitation wavelength and 2 wavelengths for fluorescence emission (Ex409 nm, Em460 nm, Em530 nm). The intensity ratio of fluorescence at 460 nm/530 nm was calculated for each well. The maximum response ratio confirmed from the dose response of SIP was expressed as 100%. The concentration of a test compound required to stimulate 50% of its maximal activation was computed as EC50 (nM).

[4] = molecular target: T2, Human S1P4 receptor (Homo sapiens, UniProt O95977); assay: Agonist activity at an S1P4 receptor (calcium influx); assay type: cell-based; details: at 1000 nM; read-out: activity at S1P4 receptor (elevation of intracellular calcium)
T2 sequence (O95977 1-384): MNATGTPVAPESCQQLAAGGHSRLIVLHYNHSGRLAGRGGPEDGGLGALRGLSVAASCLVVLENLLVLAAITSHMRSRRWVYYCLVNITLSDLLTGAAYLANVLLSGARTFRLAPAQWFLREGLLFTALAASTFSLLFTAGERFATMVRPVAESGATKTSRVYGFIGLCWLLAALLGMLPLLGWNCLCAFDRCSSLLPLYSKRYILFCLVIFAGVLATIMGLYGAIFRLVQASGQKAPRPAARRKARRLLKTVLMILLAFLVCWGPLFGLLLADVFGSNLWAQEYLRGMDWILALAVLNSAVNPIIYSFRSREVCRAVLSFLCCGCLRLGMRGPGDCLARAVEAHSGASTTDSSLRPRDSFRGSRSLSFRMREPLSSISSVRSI
Protocol: By using Human S1P4 receptor expressing cells (Multispan Inc. CG1052-1), the elevation of intracellular calcium concentration via agonist activity by the addition of 1000 nM was measured by Fret method (fluorescence resonance energy transfer).

[5] = molecular target: Human S1P3 receptor (Homo sapiens, UniProt Q99500); assay: Agonist activity at an S1P3 receptor ([35S]-GTPγS exchange reaction at 1000 nM); assay type: biochemical; details: read-out: percent of the maximal agonist activity at S1P3 receptor
Protocol: (§1) By using membrane fractions prepared from a human S1P1 receptor expressing cells (Multispan Ltd.), the agonist activity of each test compound was measured by [^35S]-GTPγS exchange reaction in accordance with a standard procedure (Methods in Molecular Biology, Vol. 552, p 143-151 (2009)), and EC50 (nM) of each test compound was computed.
By using membrane fractions prepared from Human S1P3 receptor expressing cells (Multispan Inc.), the agonist activity of the compound in the present invention was measured by a [^35S]-GTPγS exchange reaction at 1000 nM by the similar method of the Experimental Example 2.

[6] = molecular target: T1, Human S1P1 receptor; assay: Agonist activity at an S1P1 receptor ([35S]-GTPγS exchange reaction, membrane fractions); assay type: biochemical; details: read-out: EC50, agonist activity at S1P1 receptor (GTP exchange reaction)
Protocol: as §1

[7] = system: heart rate; assay: Evaluation of the heart rate in a rat (under consciousness); assay type: in vivo; details: vascular administration
Protocol: Under anesthesia, femoral artery was cannulated in a 7-11-week old male SD rat (Charles River Laboratories Japan Inc.) that had been reared for more than one week. Arterial cannula was connected to a pressure transducer, and under consciousness changes in the heart rate were monitored with a polygraph (Nihon Kohden) up to 4 hours after the vascular administration of the vehicle (10% PEG300-0.01M KOH saline) or the test compounds. The dose that lowered the heart rate by 20% was computed as TD20 (mg/kg body weight).

[8] = system: electrocardiogram / monophasic action potential (MAP); assay: Evaluation of cardiovascular system in a guinea pig; assay type: in vivo; details: anesthetized guinea pig, 0.1 mg/kg body weight, infusion
Source text: Under anesthesia with 0.5 to 1% of halothane, to a male Hartley guinea-pig (Japan SLC, Inc.) that had been reared for more than one week, a catheter for administration of a drug solution was placed into the left jugular vein, a monophasic action potential (MAP) measurement/pacing catheter was placed into the endothelial lining of the right ventricle, a catheter for measuring blood pressure was placed into the left carotid artery, and the measurement of body surface electrocardiogram (lead II) was conducted. The drug solution was infused for 10 minutes and the measurement was carried out over 60 minutes. Also, 5, 10, 15, 20, 30, 45 and 60 minutes after the administration of the drug solution, pacing was performed (200, 240, 300 bpm), and monophasic action potential (MAP) was measured.

[9] = system: blood lymphocytic cells; assay: Suppressive effect on circulating lymphocytic cells in a rat; assay type: in vivo; details: 6 hours after administration
Protocol: Under anesthesia, a femoral artery was cannulated in a 7-11-week old male SD rat (Charles River Laboratories Japan Inc.) that had been reared for more than one week. A vehicle (in case of intravascular administration, 10% PEG300-0.01 M KOH saline was used, and in case of oral administration, 0.5% hydroxymethyl cellulose solution was used) or a test compound was administered intravascularly or by gavage administration. Right before the administration or 2, 4, 6 hours after the administration, the number of blood lymphocytic cells was counted by using an automated hematology analyzer XT-1800i or XT-2000i (Sysmex). The count of lymphocytic cells right before the administration was regarded as 100%, and the dose of the test compound that reduced blood lymphocytic cells by 50% of vehicle-treated group at the point of 6 hours after the administration was calculated as ED50 (mg/kg body weight).

[10] = anesthetized rat, intravenous 0.1 mg/kg body weight

Human S1P3 receptor, sequence (Q99500 whole entry): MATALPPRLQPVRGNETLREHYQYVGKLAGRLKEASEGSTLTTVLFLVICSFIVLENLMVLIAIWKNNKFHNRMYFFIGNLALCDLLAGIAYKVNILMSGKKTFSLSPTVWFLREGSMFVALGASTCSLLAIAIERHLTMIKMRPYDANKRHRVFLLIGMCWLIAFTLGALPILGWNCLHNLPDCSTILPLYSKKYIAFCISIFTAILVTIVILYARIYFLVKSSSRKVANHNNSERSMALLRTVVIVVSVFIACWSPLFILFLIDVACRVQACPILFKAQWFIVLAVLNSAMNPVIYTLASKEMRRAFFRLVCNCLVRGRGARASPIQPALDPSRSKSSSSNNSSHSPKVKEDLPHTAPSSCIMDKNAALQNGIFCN
T1 sequence (P21453 whole entry): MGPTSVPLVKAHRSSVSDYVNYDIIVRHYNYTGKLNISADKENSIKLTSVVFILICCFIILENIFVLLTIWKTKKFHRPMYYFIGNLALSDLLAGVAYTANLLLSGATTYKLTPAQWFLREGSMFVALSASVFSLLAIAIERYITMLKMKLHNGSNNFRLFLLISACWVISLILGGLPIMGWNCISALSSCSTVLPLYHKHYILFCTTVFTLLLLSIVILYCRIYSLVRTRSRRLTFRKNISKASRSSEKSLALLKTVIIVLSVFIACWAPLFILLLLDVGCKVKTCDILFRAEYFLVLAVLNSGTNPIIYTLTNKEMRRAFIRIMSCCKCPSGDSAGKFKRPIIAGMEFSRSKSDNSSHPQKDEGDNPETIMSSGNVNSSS

Structure (SMILES)	EC50 [3]	activation at 1 µM [4]	Emax at 1 µM [5]	EC50 [6]	other results
CC(C)Oc1ccc(-c2nc(-c3ccc(CN4CC(C(=O)O)C4)cc3)no2)cc1 [1-{4-[5-(4-isopropoxyphenyl)-1,2,4-oxadiazol-3-yl]benzyl}azetidine-3-carboxylic acid]					residual compound after anaerobic culture with homogenate [1]: ≤ 2%; cardiac arrest (cases) [2, 10]: 1 out of 3; duration of continuous cardiac arrhythmia (AV block) [2, 10]: 170 s
CC(C)Oc1ccc(-c2cnc(-c3ccc(CN4CC(C(=O)O)C4)cc3)s2)c(C(F)(F)F)c1 [Example 55, 1-(4-(5-(4-isopropoxy-2-(trifluoromethyl)phenyl)thiazol-2-yl)benzyl)azetidine-3-carboxylic acid]	≤ 10 nM	< 20%	< 20%	≤ 500 nM	
CC(C)Oc1ccc(-c2cnc(-c3ccc(CN4CC(C(=O)O)C4)cc3)s2)cc1C(F)(F)F [Example 56, 1-(4-(5-(4-isopropoxy-3-(trifluoromethyl)phenyl)thiazol-2-yl)benzyl)azetidine-3-carboxylic acid]	≤ 1 nM	< 20%	20 to 50%	≤ 100 nM	
CC(C)Oc1ccc(-c2cnc(-c3ccc(CN4CC(C(=O)O)C4)c(F)c3)s2)cc1Cl [Example 57, 1-(4-(5-(3-chloro-4-isopropoxyphenyl)thiazol-2-yl)-2-fluorobenzyl)azetidine-3-carboxylic acid]	≤ 1 nM	< 20%	< 20%	≤ 50 nM	
CC(C)Oc1ccc(-c2cnc(-c3ccc(CN4CC(C(=O)O)C4)c(C(F)(F)F)c3)s2)cc1Cl [Example 58, 1-(4-(5-(3-chloro-4-isopropoxyphenyl)thiazol-2-yl)-2-(trifluoromethyl)benzyl)azetidine-3-carboxylic acid]	≤ 1 nM	< 20%	< 20%	≤ 50 nM	
CC(C)Cc1ccc(-c2cnc(-c3ccc(CN4CC(C(=O)O)C4)cc3F)s2)cc1C#N [Example 59, 1-(4-(5-(3-cyano-4-isobutylphenyl)thiazol-2-yl)-3-fluorobenzyl)azetidine-3-carboxylic acid]	≤ 1 nM	< 20%	< 20%	≤ 50 nM	
CC(C)Oc1ccc(-c2cnc(-c3ccc(CN4CC(C(=O)O)C4)cc3Cl)s2)cc1Cl [Example 60, 1-(3-chloro-4-(5-(3-chloro-4-isopropoxyphenyl)thiazol-2-yl)benzyl)azetidine-3-carboxylic acid]	≤ 1 nM	< 20%	20 to 50%	≤ 10 nM	
COc1cc(CN2CC(C(=O)O)C2)ccc1-c1ncc(-c2ccc(OC(C)C)c(Cl)c2)s1 [Example 61, 1-(4-(5-(3-chloro-4-isopropoxyphenyl)thiazol-2-yl)-3-methoxybenzyl)azetidine-3-carboxylic acid]	≤ 100 nM	< 20%	< 20%	≤ 10 nM	
Cc1cc(-c2ncc(-c3ccc(OC(C)C)c(Cl)c3)s2)ccc1CN1CC(C(=O)O)C1 [Example 62, 1-(4-(5-(3-chloro-4-isopropoxyphenyl)thiazol-2-yl)-2-methylbenzyl)azetidine-3-carboxylic acid]	≤ 1 nM	< 20%	20 to 50%	≤ 10 nM	
CC(C)Oc1ccc(-c2cnc(-c3ccc(CN4CC(C(=O)O)C4)c(Cl)c3)s2)cc1Cl [Example 63, 1-(2-chloro-4-(5-(3-chloro-4-isopropoxyphenyl)thiazol-2-yl)benzyl)azetidine-3-carboxylic acid]	≤ 1 nM	< 20%	< 20%	≤ 50 nM	
COc1cc(-c2ncc(-c3ccc(OC(C)C)c(Cl)c3)s2)ccc1CN1CC(C(=O)O)C1 [Example 64, 1-(4-(5-(3-chloro-4-isopropoxyphenyl)thiazol-2-yl)-2-methoxybenzyl)azetidine-3-carboxylic acid]	≤ 10 nM	< 20%	< 20%	≤ 10 nM	
CCCCCCCCc1ccc(CCC(N)(CO)CO)cc1 [Fingolimod, reference compound]					TD20, dose that lowered the heart rate by 20% ([7]; conscious rat): 0.3 mg/kg body weight; TD20/ED50 ratio ([7]; rat): 5; MAP90 prolongation effect [8]: recognized; prolonged QT [8]: recognized; ED50, dose reducing blood lymphocytic cells by 50% ([9]; gavage administration): 0.2 mg/kg body weight; ED50, dose reducing blood lymphocytic cells by 50% ([9]; vascular administration): 0.06 mg/kg body weight
CCCCCCCCc1ccc(CCC(N)(CO)COP(=O)(O)O)cc1 (centres unmarked) [phosphorylated form of Fingolimod]					duration of continuous cardiac arrhythmia (AV block) ([2]; rat, in vivo, iv, 0.1 mg/kg): 120 s
